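Cultured in 96-well plates, cells were exposed to test compound for 48 hours across five concentrations. TGI is the concentration that stops growth completely.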
How the values were obtained:
Test in all cases: NCI tumour cell line growth inhibition, 48 h
[1] = test system: OVCAR-3 ovarian
[2] = test system: HCT-15 colon
[3] = test system: COLO 205 colon
[4] = test system: SF-539 CNS
[5] = test system: M19-MEL melanoma
[6] = test system: SF-268 CNS
[7] = test system: LXFL 529 NSCLC
[8] = test system: K-562 leukemia
[9] = test system: ACHN renal
[10] = test system: LOX IMVI melanoma
[11] = test system: A549 NSCLC
[12] = test system: UO-31 renal
[13] = test system: SK-MEL-28 melanoma
[14] = test system: HT29 colon
[15] = test system: HL-60(TB) leukemia
[16] = test system: SK-MEL-5 melanoma
[17] = test system: NCI-H23 lung
[18] = test system: SNB-19 CNS
[19] = test system: 786-0 renal
[20] = test system: SK-MEL-2 melanoma
[21] = test system: HOP-18 NSCLC
[22] = test system: KM20L2 colon
[23] = test system: SK-OV-3 ovarian
[24] = test system: NCI-H226 lung
[25] = test system: HCT-116 colon
[26] = test system: DMS 114 small cell lung
[27] = test system: DLD-1 colon
[28] = test system: OVCAR-8 ovarian
[29] = test system: SW-620 colon
[30] = test system: A498 renal
[31] = test system: EKVX NSCLC
[32] = test system: MOLT-4 leukemia
[33] = test system: XF 498 CNS
[34] = test system: HOP-92 NSCLC
[35] = test system: MALME-3M melanoma
[36] = test system: CCRF-CEM leukemia
[37] = test system: TK-10 renal
[38] = test system: UACC-257 melanoma
[39] = test system: OVCAR-4 ovarian
[40] = test system: IGROV1 ovarian
[41] = test system: NCI-H522 lung
[42] = test system: RXF 393 renal
[43] = test system: NCI-H460 lung
[44] = test system: U251 CNS
[45] = test system: KM12 colon
[46] = test system: SF-295 CNS
[47] = test system: HOP-62 NSCLC
[48] = test system: RXF-631 renal
[49] = test system: SR leukemia
[50] = test system: M14 melanoma
[51] = test system: DMS 273 small cell lung
[52] = test system: SN12C renal
[53] = test system: OVCAR-5 ovarian
[54] = test system: UACC-62 melanoma
[55] = test system: SNB-75 CNS
[56] = test system: CAKI-1 renal

Question: How did the TGI [1] turn out when `CCOC(=O)C(=Cc1cccnc1C)C(=O)OCC` was run?
Answer: The TGI was 8.67 µM.

Question: And the TGI [2]?
Answer: Its TGI is 19.4 µM.

Question: And the TGI [3]?
Answer: Its TGI is 18.4 µM.

Question: What about the TGI [4] of the same molecule?
Answer: The TGI was 33.3 µM.

Question: And the TGI [5]?
Answer: The TGI was 22.3 µM.

Question: What about the TGI [6] of the same molecule?
Answer: The TGI was 31.3 µM.

Question: What about the TGI [7] of the same molecule?
Answer: Its TGI is 20.2 µM.

Question: What about the TGI [8] of the same molecule?
Answer: The TGI was 17.3 µM.

Question: And the TGI [9]?
Answer: The TGI was 29.5 µM.

Question: What about the TGI [10] of the same molecule?
Answer: The TGI was 14.2 µM.

Question: And the TGI [11]?
Answer: The TGI was 51.3 µM.

Question: What about the TGI [12] of the same molecule?
Answer: The TGI was 17.6 µM.

Question: And the TGI [13]?
Answer: The TGI was 36.5 µM.

Question: What about the TGI [14] of the same molecule?
Answer: Its TGI is 18.4 µM.

Question: And the TGI [15]?
Answer: Its TGI is > 100 µM.

Question: What about the TGI [16] of the same molecule?
Answer: The TGI was 25.1 µM.

Question: And the TGI [17]?
Answer: Its TGI is 18.4 µM.

Question: What about the TGI [18] of the same molecule?
Answer: Its TGI is 23.6 µM.

Question: What about the TGI [19] of the same molecule?
Answer: Its TGI is 20.8 µM.

Question: And the TGI [20]?
Answer: The TGI was 16 µM.

Question: And the TGI [21]?
Answer: Its TGI is 21.7 µM.

Question: What about the TGI [22] of the same molecule?
Answer: Its TGI is 10.7 µM.

Question: What about the TGI [23] of the same molecule?
Answer: The TGI was 25 µM.

Question: And the TGI [24]?
Answer: Its TGI is 53.3 µM.

Question: And the TGI [25]?
Answer: Its TGI is 17.9 µM.

Question: What about the TGI [26] of the same molecule?
Answer: The TGI was 31.3 µM.

Question: What about the TGI [27] of the same molecule?
Answer: Its TGI is 47.4 µM.

Question: And the TGI [28]?
Answer: The TGI was 16.9 µM.

Question: And the TGI [29]?
Answer: Its TGI is 17.5 µM.

Question: And the TGI [30]?
Answer: Its TGI is 31 µM.

Question: And the TGI [31]?
Answer: Its TGI is 42.1 µM.

Question: And the TGI [32]?
Answer: The TGI was 46.9 µM.

Question: What about the TGI [33] of the same molecule?
Answer: The TGI was 25.6 µM.

Question: What about the TGI [34] of the same molecule?
Answer: Its TGI is 24.5 µM.

Question: And the TGI [35]?
Answer: Its TGI is 26.8 µM.

Question: What about the TGI [36] of the same molecule?
Answer: The TGI was > 100 µM.

Question: And the TGI [37]?
Answer: Its TGI is 25.5 µM.

Question: What about the TGI [38] of the same molecule?
Answer: The TGI was 20.7 µM.

Question: And the TGI [39]?
Answer: The TGI was 27.4 µM.

Question: And the TGI [40]?
Answer: The TGI was 25 µM.

Question: What about the TGI [41] of the same molecule?
Answer: The TGI was 11.7 µM.

Question: What about the TGI [42] of the same molecule?
Answer: The TGI was 9.8 µM.

Question: What about the TGI [43] of the same molecule?
Answer: The TGI was 35.8 µM.

Question: What about the TGI [44] of the same molecule?
Answer: The TGI was 18.6 µM.

Question: And the TGI [45]?
Answer: Its TGI is 12.9 µM.

Question: What about the TGI [46] of the same molecule?
Answer: Its TGI is 24.2 µM.

Question: And the TGI [47]?
Answer: Its TGI is 40.7 µM.

Question: What about the TGI [48] of the same molecule?
Answer: The TGI was 39.7 µM.

Question: What about the TGI [49] of the same molecule?
Answer: The TGI was 26.2 µM.

Question: What about the TGI [50] of the same molecule?
Answer: Its TGI is 24.2 µM.

Question: And the TGI [51]?
Answer: Its TGI is 14 µM.

Question: And the TGI [52]?
Answer: The TGI was 16.2 µM.

Question: And the TGI [53]?
Answer: The TGI was 31.8 µM.

Question: What about the TGI [54] of the same molecule?
Answer: The TGI was 20.1 µM.

Question: What about the TGI [55] of the same molecule?
Answer: The TGI was 11.8 µM.

Question: What about the TGI [56] of the same molecule?
Answer: The TGI was 18.9 µM.
